Active and inactive are the calls of the source.

Series [1] deals with T1, Cytochrome P450 2C9 (Homo sapiens, UniProt P11712).
A short description of series [2]: MIN6 cell viability loss – mouse insulinoma, cytotoxicity control, dose response (AID 2122).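 Note: confirmatory high-throughput counterscreen run to flag cytotoxic compounds.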 It counts as functional.
The nature of series [3]: decrease of insulin promoter-GFP reporter – imaging, high-content screening, mouse beta cells (AID 1628). It counts as functional. The note with it: MIN6.
Series [4] addresses T2, Cannabinoid receptor 1 (Homo sapiens, UniProt P21554). Nature of the series: SAR analysis of agonists of the Cannabinoid Receptor 1 using an Image-Based Assay - Set 2. [Related pubchem assays (depositor defined):AID2013, AID2026]. Type of series: functional.
Series [5] addresses T3, Cannabinoid receptor 2 (Homo sapiens, UniProt P34972). The series is described as follows: SAR analysis of antagonists of the Cannabinoid Receptor 2 using an Image-Based Assay. [Related pubchem assays (depositor defined):AID2013, AID2026]. It counts as functional.
In series [6] the target is T4, G-protein coupled receptor 35 (Homo sapiens, UniProt Q9HC97). The series is described as follows: SAR analysis of Agonists of the GPR35 Receptor using an Image-Based Assay - Set 2. [Related pubchem assays (depositor defined):AID2013, AID2026]. Type of series: functional.
T4 sequence (Q9HC97 whole entry): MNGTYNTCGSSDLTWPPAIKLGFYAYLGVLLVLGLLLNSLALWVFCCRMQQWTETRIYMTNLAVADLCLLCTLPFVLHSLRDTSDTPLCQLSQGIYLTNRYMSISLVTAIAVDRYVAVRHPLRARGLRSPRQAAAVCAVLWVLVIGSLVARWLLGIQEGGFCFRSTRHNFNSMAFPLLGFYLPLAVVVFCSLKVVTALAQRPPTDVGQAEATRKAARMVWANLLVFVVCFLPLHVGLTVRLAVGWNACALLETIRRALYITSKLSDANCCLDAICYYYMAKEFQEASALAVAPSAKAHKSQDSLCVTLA
Series [7] has as its target G-protein coupled receptor 55 (Homo sapiens, UniProt Q9Y2T6). Nature of the series: inhibition of LPI-stimulated GPR55 beta-arrestin translocation – imaging, U2OS, beta-arrestin-GFP, LPI agonist, primary screen (AID 2013).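 Note: antagonist potency measured as reduced agonist-driven arrestin aggregation.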 It counts as functional.
The target in series [8] is T3, Cannabinoid receptor 2. Nature of the series: SAR analysis of agonists of the Cannabinoid Receptor 2 using an Image-Based Assay. [Related pubchem assays (depositor defined):AID2013, AID2026]. It counts as functional.
For series [9], the target named is T2, Cannabinoid receptor 1. Nature of the series: SAR analysis of antagonists of the Cannabinoid Receptor 1 using an Image-Based Assay - Set 2. [Related pubchem assays (depositor defined):AID2013, AID2026]. It counts as functional.
The target in series [10] is T4, G-protein coupled receptor 35. Nature of the series: SAR analysis of Antagonists of the GPR35 Receptor using an Image-Based Assay - Set 3. [Related pubchem assays (depositor defined):AID2013, AID2026]. It counts as functional.
The nature of series [11]: A cytotoxicity screen of small molecule inhibitors of the PhoP region in Salmonella typhi identified in the primary screen. [Related pubchem assays: 1850, 1864, 1985 ]. It counts as functional.
A short description of series [12]: restored growth of temperature-sensitive Burl-1 yeast – whole organism, S. cerevisiae, Burl-1 ts mutant, luminescence, counter-screen for SUMOylation pathway inhibitor project, dose response (AID 463199). Type of series: functional. In general terms: The purpose of a counterscreen is to sort out artefacts and off-target activity.
For series [13], the target named is T1, Cytochrome P450 2C9. The source holds these as a separate data set.
For another series, the target named is T5, Cytochrome P450 1A2 (Homo sapiens, UniProt P05177).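 Note: PubChem cytochrome P450 panel assay, CYP1A2 panel member.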
T5 sequence (P05177 whole entry): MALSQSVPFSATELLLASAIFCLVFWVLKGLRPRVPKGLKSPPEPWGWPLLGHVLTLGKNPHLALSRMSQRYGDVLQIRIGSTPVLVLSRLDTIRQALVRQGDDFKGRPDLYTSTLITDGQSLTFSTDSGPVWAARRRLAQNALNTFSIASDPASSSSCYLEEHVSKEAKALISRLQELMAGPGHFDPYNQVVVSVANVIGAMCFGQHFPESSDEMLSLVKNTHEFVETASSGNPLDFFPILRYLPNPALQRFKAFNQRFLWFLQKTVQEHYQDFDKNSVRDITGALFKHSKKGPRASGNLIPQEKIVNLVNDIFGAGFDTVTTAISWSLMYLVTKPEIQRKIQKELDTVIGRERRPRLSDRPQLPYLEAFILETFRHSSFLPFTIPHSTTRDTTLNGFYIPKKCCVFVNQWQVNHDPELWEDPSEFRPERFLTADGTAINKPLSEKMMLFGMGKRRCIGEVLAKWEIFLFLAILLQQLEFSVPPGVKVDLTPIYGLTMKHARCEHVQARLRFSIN

Another series addresses Cytochrome P450 2C19 (Homo sapiens, UniProt P33261). The series is described as follows: Cytochrome panel assay with activity outcomes. Panel member name: p450-cyp2c19 Compounds with AC50 equal or less than 10 uM are considered active. It counts as functional. The note with it: read-out: AC50.

T1 sequence (P11712 whole entry): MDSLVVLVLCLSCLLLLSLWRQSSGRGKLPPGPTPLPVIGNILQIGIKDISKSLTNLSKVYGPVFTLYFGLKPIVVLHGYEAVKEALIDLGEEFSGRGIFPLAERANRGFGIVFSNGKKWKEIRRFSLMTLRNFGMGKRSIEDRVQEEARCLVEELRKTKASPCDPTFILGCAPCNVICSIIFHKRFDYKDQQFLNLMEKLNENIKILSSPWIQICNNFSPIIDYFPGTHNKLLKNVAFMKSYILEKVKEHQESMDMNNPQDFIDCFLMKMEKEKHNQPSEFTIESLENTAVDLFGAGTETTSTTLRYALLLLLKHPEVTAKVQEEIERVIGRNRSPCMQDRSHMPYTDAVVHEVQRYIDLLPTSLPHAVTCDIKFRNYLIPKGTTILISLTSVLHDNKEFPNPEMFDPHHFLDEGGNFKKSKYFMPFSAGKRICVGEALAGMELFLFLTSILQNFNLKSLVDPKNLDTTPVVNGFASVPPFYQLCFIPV
T2 sequence (P21554 whole entry): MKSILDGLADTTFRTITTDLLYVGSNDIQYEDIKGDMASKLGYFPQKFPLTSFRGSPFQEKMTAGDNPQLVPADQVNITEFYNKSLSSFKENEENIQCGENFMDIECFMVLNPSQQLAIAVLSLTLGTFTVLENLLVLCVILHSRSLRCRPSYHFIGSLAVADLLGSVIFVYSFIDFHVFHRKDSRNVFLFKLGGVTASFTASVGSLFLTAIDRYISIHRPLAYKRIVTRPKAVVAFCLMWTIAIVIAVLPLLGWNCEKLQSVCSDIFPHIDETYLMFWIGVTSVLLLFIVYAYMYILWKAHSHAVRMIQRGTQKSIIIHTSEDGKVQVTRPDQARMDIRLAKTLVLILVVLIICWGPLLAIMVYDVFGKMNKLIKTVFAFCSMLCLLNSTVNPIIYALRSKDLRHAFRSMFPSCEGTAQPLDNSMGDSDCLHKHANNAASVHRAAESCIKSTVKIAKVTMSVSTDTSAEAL
T3 sequence (P34972 whole entry): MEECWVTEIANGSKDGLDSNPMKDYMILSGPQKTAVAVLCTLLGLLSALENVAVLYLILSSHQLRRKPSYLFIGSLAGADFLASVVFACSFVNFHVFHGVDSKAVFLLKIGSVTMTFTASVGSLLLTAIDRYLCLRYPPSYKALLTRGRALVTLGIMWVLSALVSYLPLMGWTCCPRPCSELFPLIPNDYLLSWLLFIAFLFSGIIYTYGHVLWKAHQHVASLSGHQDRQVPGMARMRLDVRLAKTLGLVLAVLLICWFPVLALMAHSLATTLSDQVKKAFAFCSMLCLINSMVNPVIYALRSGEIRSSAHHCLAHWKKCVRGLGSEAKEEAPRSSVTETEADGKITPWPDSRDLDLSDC
Sequence of G-protein coupled receptor 55 (Q9Y2T6 whole entry): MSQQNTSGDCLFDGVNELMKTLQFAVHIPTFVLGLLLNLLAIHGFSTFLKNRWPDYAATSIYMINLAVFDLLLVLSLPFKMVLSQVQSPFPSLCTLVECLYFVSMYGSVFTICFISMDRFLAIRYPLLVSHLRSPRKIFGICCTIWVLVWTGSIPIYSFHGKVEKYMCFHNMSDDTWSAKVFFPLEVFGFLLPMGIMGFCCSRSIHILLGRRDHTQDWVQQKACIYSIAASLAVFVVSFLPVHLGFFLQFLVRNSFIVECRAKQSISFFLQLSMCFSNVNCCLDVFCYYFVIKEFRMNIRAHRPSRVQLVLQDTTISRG
Sequence of Cytochrome P450 2C19 (P33261 whole entry): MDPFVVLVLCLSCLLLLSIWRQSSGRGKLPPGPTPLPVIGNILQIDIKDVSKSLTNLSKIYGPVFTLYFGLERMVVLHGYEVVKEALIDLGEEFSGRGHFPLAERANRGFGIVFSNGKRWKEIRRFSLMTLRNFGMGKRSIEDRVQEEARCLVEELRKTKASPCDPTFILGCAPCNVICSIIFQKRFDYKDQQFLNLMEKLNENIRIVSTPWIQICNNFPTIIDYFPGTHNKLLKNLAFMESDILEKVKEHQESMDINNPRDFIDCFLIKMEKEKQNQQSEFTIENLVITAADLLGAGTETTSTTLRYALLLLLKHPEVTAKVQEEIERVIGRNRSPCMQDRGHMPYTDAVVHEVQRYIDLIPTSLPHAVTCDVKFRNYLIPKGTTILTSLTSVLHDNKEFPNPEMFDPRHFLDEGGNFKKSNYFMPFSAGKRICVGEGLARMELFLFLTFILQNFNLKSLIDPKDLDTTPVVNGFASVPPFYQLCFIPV

`Cc1ccc(NC(=O)c2nnn(-c3cc(C)cc(C)c3)c2N)cc1`: the concentration at half-maximal activity (AC50) (as a rule, the concentration giving half of the maximal activity seen) at Cytochrome P450 2C9 [1] was “inconclusive”.
On to `CN1CCN(Cc2ccc(OCc3ccccc3)cc2)CC1`, for which the values for the IC50 in series [2] and in series [3] were 1.8 µM (active) and 3.08 µM (active), respectively.
As for `Cc1nc(N2CCN(C(=O)c3ccco3)CC2)c2c3c(sc2n1)CCCC3`, the EC50 (on Cannabinoid receptor 1 [4]; in series [6]; at Cannabinoid receptor 2 [8]) was > 32 µM (inactive) in each case. In addition, the IC50 – broadly, the concentration that inhibits the measured activity by half – at Cannabinoid receptor 2 [5] is > 32 µM (inactive); in series [7], 1.58 µM (active); at Cannabinoid receptor 1 [9], > 32 µM (inactive); in series [10] it was > 32 µM (inactive).
For the molecule `CC1CCN(CCCCOc2ccc(Cl)cc2)CC1`, the EC50 (as a rule, the concentration that produces a half-maximal response) in series [11] was > 50 µM (active). Further, the AC50 in series [12] is 46.3 µM (active).
With `COC(=O)[C@@]1(Cc2ccc(F)cc2)[C@@H]2[C@@H](CC(=O)[C@H]2CC(=O)C(=O)N2CCCC2)CN1C(=O)c1ccccc1`, the AC50 at Cytochrome P450 2C9 [13] is 39.8 µM (inconclusive); at Cytochrome P450 1A2, “inconclusive”; on Cytochrome P450 2C19, 15.8 µM (inconclusive).
